From EP0587374A2, “Sulfated sterol glycosides and their use against viral infections” (VIROSTAT (NA) NV, priority 1992, dated 1994)
Values joined by “and” are separate entries in the source; they are usually repeats but may differ in a detail not shown here. Equal entries are not always repeated. Where two headings read alike, the source gives them in different places.

Key:
blood clotting = details: 50 µg/mℓ, prothrombin time in vitro
Protocol: Prothrombin Time was measured according to standard techniques using CaCl₂, citrated-plasma and prothrombin.

[1] = test system: Peripheral blood lymphocytes; assay: In vitro cytotoxicity, Trypan Blue exclusion after 3 days of culture; details: for % Viability: 3 days, means of 4 counts
Protocol: Peripheral blood lymphocytes were prepared from normal blood. Cells were cultured for 3 days in complete medium [(RPMI, a commercially available so-called standard salt solution) + 10 % foetal calf serum (FCS) + […]] in the presence/absence of phytohemagglutinin (PHA). Duplicate wells were set up. Incubation was at 37°C and 5 % CO₂.
On the third day, cell viabilities were determined using the Trypan Blue exclusion test.
Those products which were water soluble, were made up at 8 mg/mℓ stocks in sterile distilled water and diluted 1:10 in RPMI medium and again diluted 1:10 directly in the wells containing the cells in complete medium. The final concentrations were thus 80 µg/mℓ. For the lower dilutions, the 8 mg/mℓ stock was diluted 1:2 or 1:4 or 1:8 in water before being diluted in the RPMI medium.
For those products which were DMSO-soluble, the stocks were made'up at 8 mg/mℓ in 100 % DMSO. This stock was diluted 1:10 in 100 % FCS and diluted 1:10 directly in the wells containing the cells in RPMI medium only. The final concentrations were thus 10 % FCS and 1 % DMSO. For the lower dilutions, the 8 mg/mℓ stock was diluted 1:2 or 1:4 or 1:8 with DMSO before the FCS dilution step.
This stock was diluted in water to yield a working stock of 2 mg/mℓ. The 2 mg/ml stock was diluted 1:20 or 1:10 or 1:5 or 1:2.5 in water and again 1:10 in the wells to give the 10, 20, 40 or 80 µg/mℓ final concentrations respectively.

[2] = test system: feline immunodeficiency virus (FIV); assay: In vivo anti-FIV test in an experimentally infected cat: antibody titer, haematology, lymphocyte subsets; details: 5 mg/kg s.c. weekly from week 10; for WBC: pre-treatment weeks 0/6: 11.8/13.2; for CD4⁺: pre-treatment weeks 0/6: 460/350; for CD8⁺: pre-treatment weeks 0/6: 1115/721; for CD3⁺: pre-treatment weeks 0/6: 1742/1219; for Lymph.: lymphocytes, pre-treatment weeks 0/6: 2600/2380
Protocol: The substance was tested at a dosage rate of 5 mg/kg body mass on a cat infected with feline immunodeficiency virus, administered by subcutaneous injection at weekly intervals over a period of 13 weeks.
A cat which had been experimentally infected with a strain of feline immunodeficiency virus (FIV) using the blood of a naturally infected cat was used for this experiment. […] The haematological and immunological parameters were monitored during the dosage period as described below.
A specimen of blood was used to determine the antibody titer to FIV using a commercial kit (CITE Combo, Indexx Corporation, Portland). The serum was diluted with saline solution and each serum diulation was tested in order to determine the highest dilution yielding positive results. This dilution was subsequently used as the cut-off titer of positivity. The titer of antibodies was determined at regular intervals during the treatment period.
Whole blood was diluted by 50% with RPMI medium and layered on to Histopaque (Sigma) and centrifuged at 200 gravities for 25 minutes. The cells at the interface were collected and washed three times with RPMI. These cells represented the mononuclear cells of the blood and were used for determining the percentage of T-cells and the subsets thereof as described hereunder.
Cells (1 x 10⁶) were incubated in test tubes with aliquots of monoclonal antibody reactive with CD3, CD4 and CD8 antigens. The mixtures of different antibodies were conducted as follows: CD3-FITC + CD4-PE CD3-FITC + CD8-PE
The tubes were incubated for 20 minutes at room temperature and following two washes with phosphate-buffered saline solution (PBS), the cells were fixed with 400 µℓ PBS containing 0.5% formaldehyde.
Cell fluoresence was assessed using a FACScan cytometer. […] The analysis was conducted using the LYSIS II software programme after having set a lymphocyte gate on the FSC versus SSC scattergram. All the results were expressed as percentage positive lymphocytes, i.e. cells which co-expressed CD3 and CD4 or CD3 and CD8 markers. In this way, CD4⁺ T cells, and in a similar fashion, CD8⁺ NK cells, were excluded from the CD3⁺ CD8⁺ T-suppressor cells.
Absolute cell numbers were calculated from basic haematology conducted on an aliquot of the whole blood. From the percentage lymphocyte differential counts, absolute values for positive cells could be calculated. This was conducted for all subsets analyzed.

Feline Herpes virus = details: 50 µg/mℓ
[3] = test system: Feline Infectious Peritonitis Virus
[4] = Protocol: The test animal received food and water without restriction.
On Tuesdays and Fridays blood samples were taken for blood chemistry, haematology and the measurement of trough plasma levels of the drug. These samples were taken prior to the administration of the drug, but at intervals as indicated in Figure 2 (which is a histogram of blood concentration levels against time) and Table 5. Blood samples were also taken 5, 10 and 15 minutes after drug adminstration in order to assess the peak plasma concentrations achieved. After 30 days the baboon was sacrificed and tissue samples were collected for testing.

[5] = for Elimination half-life: open two-compartment model
Description: Two test animals were used. […] Anaesthesia was maintained with halothane. […] Twenty-five blood samples (1.5 mℓ each) were drawn from each test animal at intervals appropriate to the pharmacokinetic modelling. […]

[6] = haematology summary, following initial drug administration

SMILES: CC[C@H](CC[C@@H](C)[C@H]1CC[C@H]2[C@@H]3CC=C4C[C@@H](O[C@@H]5O[C@H](COS(=O)(=O)O)[C@@H](OS(=O)(=O)O)[C@H](OS(=O)(=O)O)[C@H]5OS(=O)(=O)O)CC[C@]4(C)[C@H]3CC[C@]12C)C(C)C [BSSG-(SO₄⁻)₄, β-Sitosteryl β-D-glucoside tetra-sulphate]
- effect on blood clotting (blood clotting): did not affect blood clotting
- % Viability ([1]; Cells + PHA + 10 µg/mℓ): 80%
- % Viability ([1]; Cells + PHA + 20 µg/mℓ): 85%
- % Viability ([1]; Cells + PHA + 40 µg/mℓ): 82%
- % Viability ([1]; Cells + PHA + 80 µg/mℓ): 83%
- viability of test cells, trend with concentration ([1]; from 10 to 80 µg/mℓ): no tendency to toxicity
- WBC ([2]; time 12 weeks): 14.7 x10⁹/ℓ
- CD4⁺ ([2]; time 12 weeks): 315 µL
- CD8⁺ ([2]; time 12 weeks): 432 µL
- CD3⁺ ([2]; time 12 weeks): 964 µL
- WBC ([2]; time 17 weeks): 14.0 x10⁹/ℓ
- CD4⁺ ([2]; time 17 weeks): 763 µL
- CD8⁺ ([2]; time 17 weeks): 1066 µL
- CD3⁺ ([2]; time 17 weeks): 2035 µL
- WBC ([2]; time 23 weeks): 15.5 x10⁹/ℓ
- CD4⁺ ([2]; time 23 weeks): 850 µL
- CD8⁺ ([2]; time 23 weeks): 1610 µL
- CD3⁺ ([2]; time 23 weeks): 2894 µL
- Lymph. ([2]; time 12 weeks): 2940 µL
- Lymph. ([2]; time 17 weeks): 3220 µL
- Lymph. ([2]; time 23 weeks): 3990 µL
- cytopathic effect of Feline Herpes virus (Feline Herpes virus): delayed by a day
- viral cytopathic effect ([3]; 5, 12.5, 25 and 50 µg/mℓ, 10²-, […]): completely inhibited
- cytopathic effect of the drug alone ([3]; without virus): no cytopathic effect
- behavioral characteristics ([4]; 5 mg/kg i.v. daily, period of treatment): remained unchanged
- BSSG-³⁵(SO₄⁻)₄ PLASMA LEVEL ([4]; 5 mg/kg i.v. daily, sample 3-4-92 (Fri: Pre IV), trough): 56.0 µg/mL
- BSSG-³⁵(SO₄⁻)₄ PLASMA LEVEL ([4]; 5 mg/kg i.v. daily, sample 7-4-92 (Tues: Pre IV), trough): 71.0 µg/mL
- BSSG-³⁵(SO₄⁻)₄ PLASMA LEVEL ([4]; 5 mg/kg i.v. daily, sample 10-4-92 (Fri: 10 min Post IV), peak): 149.5 µg/mL
- BSSG-³⁵(SO₄⁻)₄ PLASMA LEVEL ([4]; 5 mg/kg i.v. daily, sample 10-4-92 (Fri: Pre IV), trough): 52.5 µg/mL
- BSSG-³⁵(SO₄⁻)₄ PLASMA LEVEL ([4]; 5 mg/kg i.v. daily, sample 14-4-92 (Tues: 15 min Post IV), peak): 149.7 µg/mL
- BSSG-³⁵(SO₄⁻)₄ PLASMA LEVEL ([4]; 5 mg/kg i.v. daily, sample 14-4-92 (Tues: Pre IV), trough): 65.0 µg/mL
- BSSG-³⁵(SO₄⁻)₄ PLASMA LEVEL ([4]; 5 mg/kg i.v. daily, sample 15-4-92 (Wed: 4 hr Post IV)): 72.5 µg/mL
- BSSG-³⁵(SO₄⁻)₄ PLASMA LEVEL ([4]; 5 mg/kg i.v. daily, sample 27-3-92 (Fri: Pre IV), trough): 60.3 µg/mL
- BSSG-³⁵(SO₄⁻)₄ PLASMA LEVEL ([4]; 5 mg/kg i.v. daily, sample 31-3-92 (Tues: Pre IV), trough): 59.0 µg/mL
- 24-hour post-dose-trough plasma levels ([4]; 5 mg/kg i.v. daily, subsequent samples of the study period): > 50 µg/mL
- BSSG-³⁵(SO₄⁻)₄ PLASMA LEVEL ([4]; 100 mg (5 mg/kg) i.v. daily Mon-Fri from 16-3-92, sample 24-3-92 (Tues: Pre IV), trough): 33.8 µg/mL
- autopsy findings ([4]; after 30 days of 5 mg/kg i.v. daily): no organ discoloration or change in organ texture
- chemical pathology, overall conclusion ([4]; blood chemistry twice a week, Table 6): no direct proof that the changes occurring in time were due to direct toxicity of the substance
- Haemoglobin (Hb) ([4]; general decrease during drug administration from base-line 14.8): 12.5 g/dL
- haematocrit (Hct) ([4]; general decrease during drug administration from base-line 43.4): 36.9%
- monocyte count ([4]; haematology summary, after the second week of drug administration, still present at the end): Absolute monocytopaenia
- total white cell count ([4]; haematology summary, following drug administration): slight increase in total white cell count but within normal range
- lymphocyte count [4, 6]: transient absolute lymphocytosis
- platelet count [4, 6]: transient decrease in platelet count (but still within normal range)
- haemolysis (Hb and Hct trend) ([4]; haematology summary, supported by biochemical and bone marrow iron findings): slight haemolysis
- FREE HAEMOGLOBIN CONCENTRATION ([4]; plasma, 5 mg/kg i.v. daily, sample 7-4-92 (Tues: Pre IV), before treatment 0.004, 0.005): 0.005 mg/dL
- plasma levels of the drug sustained ([4]; single daily i.v. injection of 5 mg/kg body mass over a month long period): 50 to 170 µg/mL
- histological findings ([4]; tissue samples after 30 days of 5 mg/kg i.v. daily): not severe and were fairly non-specific
- bone marrow cellularity ([4]; trephine biopsy after 30 days, slightly lower than that of an adult man): approximately 40%
- major routes of excretion ([4]; ³⁵S isotope in urine samples and faeces, high levels in the bile): via the kidney and the liver
- Elimination half-life ([5]; High Dose (750 mg) i.v.): 22 h
- Peak plasma concentration ([5]; High Dose (750 mg), i.v. infusion 30 minutes, total dose 55.6 mg/kg): 364 µg/mL
- Elimination half-life ([5]; Low Dose (120 mg) i.v.): 12 h
- Peak plasma concentration ([5]; Low Dose (120 mg), i.v. infusion 15 minutes, total dose 7.14 mg/kg): 102 µg/mL
- haemolysis in the blood samples ([5]; baboon receiving the lower dose (120 mg i.v.)): no evidence of haemolysis
- haemolysis in the blood samples ([5]; high-dose test animal (750 mg i.v.)): macroscopic evidence of haemolysis
- plasma elimination half-life ([5]; i.v., range over the two doses (120 mg, 750 mg)): 12 - 20 hours and 12 and 22 hours
- haemodynamic effects ([5]; intravenous administration, very high plasma concentrations): did not appear to be any deleterious haemodynamic effects
